The test system of one assay is ZR-75-1 tumors. The conditions noted are these: ovarectomized nude mice, estradiol and DHT pellets; expected result. As to the method: (§1) After the initial in vitro characterization of the ARKO cells, mouse xenograft experiments are performed. The ARKO cells are subcutaneously injected into ovarectomized nude mice and the parental cell lines serve as xenograft controls. This experiment allows for the comparison of AR positive and AR negative breast carcinoma cells in animals that carry a functional AR gene without the potential confounding effects of using differently derived tumor cell lines. Tumor growth rate is compared in ARKO and parental cell line recipients in response to estradiol treatment, DHT treatment, or combined administration of estradiol and DHT. […] In addition to growth rate, tumors are examined histologically to determine the morphology and degree of vascularization between ARKO cell tumors and tumors generated by the parental cell lines under the different hormonal regimes.
(§2) Female homozygous nude mice (obtained from the Jackson Laboratory) are ovarectomized. […] Ovarectomized mice are also implanted with 1.5 mg 90 day release progesterone hormonal tablets. Only the ovarian cancer based cell lines will be examined in progesterone treated animals. Animals will be subcutaneously injected with […] of the ARKO or parental cells at the time of hormonal implant Hormonal pellets will be replaced as required.

The subject of another assay is ZR-ARKO derived tumors. The conditions noted are these: ovarectomized nude mice, estradiol and DHT pellets; expected result. The protocol:
as §1, §2

Assay [1] relates to p21 (WAF1/CIP1) gene. Kind of assay: Endogenous p21 (WAF1/CIP1) gene expression in PC-3 (AR2) cells stably transfected with AR. The class given is cell-based.
Method: (§3) A. MCF-7 cells were transfected using Superfect (Qiagen) with 2 μg of pSG5-AR with or without 4 μg of BRCA1, as indicated. Cells were cultured in the presence of 10 nM DHT or vehicle, as indicated. B. PC-3(AR2) cells were transfected under the same conditions as the MCF-7 cells in A. except that AR was not transfected. […] PC-3(AR2) cells transfected with BRCA1 were cultured in the presence of vehicle, 10 nM DHT, or 1 μM hydroxyflutamide (HF).
(§4) The ability of AR and BRCA1 to regulate the endogenous p21 (WAF1/CIP1) gene in MCF-7 breast cancer cells was examined.
Assay [2] concerns p21 (WAF1/CIP1) gene. As to conditions: 10 nM DHT, MCF-7 cells transfected with AR.
Method: as §3, §4
The target in a further assay is T1, AR (Homo sapiens, UniProt P10275).
T1 construct: expressed in transfected cells; host or cells: DU145
T1 sequence (P10275 1-920): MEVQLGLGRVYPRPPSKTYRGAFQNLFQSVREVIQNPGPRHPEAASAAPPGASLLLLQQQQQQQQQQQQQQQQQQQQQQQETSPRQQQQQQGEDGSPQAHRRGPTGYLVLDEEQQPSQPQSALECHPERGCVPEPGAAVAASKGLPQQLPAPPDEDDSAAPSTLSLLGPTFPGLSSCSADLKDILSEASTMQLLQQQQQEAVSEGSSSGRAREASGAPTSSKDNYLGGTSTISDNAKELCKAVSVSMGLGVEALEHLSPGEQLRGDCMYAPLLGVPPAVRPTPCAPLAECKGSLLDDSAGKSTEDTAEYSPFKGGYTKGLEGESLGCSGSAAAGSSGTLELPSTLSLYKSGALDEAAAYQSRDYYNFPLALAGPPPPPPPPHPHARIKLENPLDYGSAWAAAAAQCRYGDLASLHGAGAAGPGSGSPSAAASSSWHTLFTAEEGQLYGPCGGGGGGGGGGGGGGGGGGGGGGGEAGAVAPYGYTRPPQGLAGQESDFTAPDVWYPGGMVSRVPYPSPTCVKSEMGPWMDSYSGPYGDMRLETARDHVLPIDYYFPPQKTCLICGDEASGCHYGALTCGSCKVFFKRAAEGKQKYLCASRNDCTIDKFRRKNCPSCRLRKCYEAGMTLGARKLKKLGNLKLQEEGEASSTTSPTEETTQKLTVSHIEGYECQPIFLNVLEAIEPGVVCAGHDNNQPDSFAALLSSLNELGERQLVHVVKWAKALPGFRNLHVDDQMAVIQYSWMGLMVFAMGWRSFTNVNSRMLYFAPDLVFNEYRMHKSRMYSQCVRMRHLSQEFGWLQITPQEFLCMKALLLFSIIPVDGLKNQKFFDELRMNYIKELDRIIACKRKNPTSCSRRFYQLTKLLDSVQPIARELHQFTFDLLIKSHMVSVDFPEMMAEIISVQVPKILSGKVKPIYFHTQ
Kind of assay: AR transcriptional activity, MMTV-CAT reporter gene in DU145 cells transfected with AR with ARA70 or empty vector. It counts as cell-based. As to conditions: 10^-10 to 10^-6 M, presence or absence of ARA70. The source says:
The DHT treatments were taken as the positive control. Data represents an average of three independent experiments.
PSA is an androgen target gene that is not transcriptionally activated by the ER (58).

Read-outs that look alike come from different tables or passages of the source.

For `C[C@]12CCC(=O)C[C@@H]1CC[C@@H]1[C@@H]2CC[C@]2(C)[C@@H](O)CC[C@@H]12` [DHT, 5α-dihydrotestosterone], the “estradiol-mediated proliferation of ZR-75-1 tumors” value in the assay with ZR-75-1 tumors is “expected to inhibit”. In addition, in the assay on ZR-ARKO derived tumors, the “estradiol induced proliferation of ZR-ARKO derived tumors in the presence of DHT” value is listed as “expected to continue estradiol induced proliferation”. Besides, the “endogenous p21 (WAF1/CIP1) gene expression” value in the assay with p21 (WAF1/CIP1) gene [1] (10 nM DHT, PC-3 (AR2) cells) is “confirmed”; in the assay with p21 (WAF1/CIP1) gene [2], “induced endogenous p21 (WAF1/CIP1) gene expression”.

For the molecule `C[C@]12CC[C@@H]3c4ccc(O)cc4C[C@@H](CCCCCCCCC[S+]([O-])CCCC(F)(F)C(F)(F)F)[C@H]3[C@@H]1CC[C@@H]2O` (stereo partly drawn) [ICI182, 780], on AR, the “induction of AR mediated transcription” value was “unable to induce AR mediated transcription”.

Turning to `CC(C)(O)C(=O)Nc1ccc([N+](=O)[O-])c(C(F)(F)F)c1` [hydroxyflutamide], the “effect on DHT induction of p21 (WAF1/CIP1)” value with p21 (WAF1/CIP1) gene [1] (1 μM hydroxyflutamide, PC-3 (AR2) cells transfected with BRCA1) was “blocks the DHT induction”.

Values taken from patent US20040261139A1, “Androgen receptor knock-out transgenic animals” (priority 2001, published 2004).
